Measured values as given in PubChem BioAssay (NCI).
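1) Cells in 96-well plates. 2) Compound, 48 h, 5 concentrations. 3) Linear interpolation between surrounding doses. 4) Unreached endpoint = highest concentration. GI50: concentration for 50% inhibition of growth. TGI marks complete inhibition of growth.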

Legend:
Assay in all cases: DTP human tumour cell line panel, 48 h
[1] = test system: SR leukemia
[2] = test system: MDA-MB-231 breast
[3] = test system: SK-MEL-5 melanoma
[4] = test system: SF-295 CNS
[5] = test system: MALME-3M melanoma
[6] = test system: SW-620 colon
[7] = test system: RXF 393 renal
[8] = test system: DU-145 prostate
[9] = test system: HT29 colon
[10] = test system: U251 CNS
[11] = test system: A549 NSCLC
[12] = test system: SK-MEL-28 melanoma
[13] = test system: MCF7 breast
[14] = test system: BT-549 breast
[15] = test system: HCC-2998 colon
[16] = test system: HCT-116 colon
[17] = test system: NCI-H23 lung
[18] = test system: OVCAR-5 ovarian
[19] = test system: UACC-62 melanoma
[20] = test system: NCI-H522 lung
[21] = test system: 786-0 renal
[22] = test system: CCRF-CEM leukemia
[23] = test system: UACC-257 melanoma
[24] = test system: OVCAR-3 ovarian
[25] = test system: SNB-75 CNS
[26] = test system: NCI-H226 lung
[27] = test system: HOP-62 NSCLC
[28] = test system: K-562 leukemia

Work on O=C(Nc1nc(-c2ccc(Cl)cc2)cs1)c1cc(-c2ccc(Br)cc2)nc2ccc(Cl)cc12 yielded a GI50 [1] of 3.72 µM, a TGI [1] greater than 100 µM and a GI50 [2] of 3.02 µM. For the same compound, the TGI [2] was 15.3 µM, the GI50 [3] was 3.28 µM and the TGI [3] was 13.1 µM. The GI50 [4] was 4.42 µM, the TGI [4] was 58.6 µM and the GI50 [5] was 5.59 µM. It also gave a TGI [5] of 76.5 µM, a GI50 [6] of 4.35 µM and a TGI [6] greater than 100 µM. For the same compound, the GI50 [7] was 19.1 µM, the TGI [7] was 89.7 µM and the GI50 [8] was 3.67 µM. For the same compound, the TGI [8] was greater than 100 µM, the GI50 [9] was 3.89 µM and the TGI [9] was greater than 100 µM. For the same compound, the GI50 [10] was 4.39 µM, the TGI [10] was 37.8 µM and the GI50 [11] was 43.8 µM. It also gave a TGI [11] greater than 100 µM, a GI50 [12] of 5.62 µM and a TGI [12] greater than 100 µM. The GI50 [13] was 2.62 µM, the TGI [13] was greater than 100 µM and the GI50 [14] was 2.47 µM. The TGI [14] was 7.89 µM, the GI50 [15] was 19.4 µM and the TGI [15] was greater than 100 µM. The GI50 [16] was 0.876 µM, the TGI [16] was 11.3 µM and the GI50 [17] was 5.64 µM. The TGI [17] was greater than 100 µM, the GI50 [18] was 28.6 µM and the TGI [18] was greater than 100 µM. It also gave a GI50 [19] of 3.49 µM, a TGI [19] of 22.6 µM and a GI50 [20] of 7.87 µM. The TGI [20] was greater than 100 µM, the GI50 [21] was 3.53 µM and the TGI [21] was 67.1 µM. It also gave a GI50 [22] of 4.06 µM, a TGI [22] greater than 100 µM and a GI50 [23] of 24.1 µM. For the same compound, the TGI [23] was greater than 100 µM, the GI50 [24] was 2.86 µM and the TGI [24] was 9.19 µM. For the same compound, the GI50 [25] was 3.63 µM, the TGI [25] was greater than 100 µM and the GI50 [26] was 2.98 µM. The TGI [26] was 15.4 µM, the GI50 [27] was 4.66 µM and the TGI [27] was greater than 100 µM. The GI50 [28] was 3.36 µM and the TGI [28] was greater than 100 µM.
